Test results published in US20220348558A1, “INHIBITORS OF ENCEPHALITIC ALPHAVIRUSES” (priority 2019, published 2022).

Tests used:
WEEV California = assay: microbe, parasite or virus in culture; format: cell-based; conditions: Western equine encephalitis virus, Vero 76, 48 h, read-out: WEEV California EC50 nM
VEEV TC83 = assay: microbe, parasite or virus in culture; format: cell-based; conditions: Venezuelan equine encephalitis virus, Vero 76, 48 h, read-out: VEEV TC83 EC50 nM

| SMILES | EC50 (WEEV California) [nM] | EC50 (VEEV TC83) [nM] |
| --- | --- | --- |
| COc1ccc(-n2c(C3CCCN3)nc3c(-c4cnc(OC)c(OC)c4)cc(C#N)cc3c2=O)cc1F (stereo not shown) [Example 135, 8-(5,6-dimethoxypyridin-3-yl)-3-(3-fluoro-4-methoxyphenyl)-4-oxo-2-(pyrrolidin-2-yl)-3,4-dihydroquinazoline-6-carbonitrile] | 1 to 50 | 1 to 50 |
| COc1ccc(-n2c([C@H]3CCCN3)nc3ccc(C#N)c(F)c3c2=O)cc1 [Example 73, (R)-5-fluoro-3-(4-methoxyphenyl)-4-oxo-2-(pyrrolidin-2-yl)-3,4-dihydroquinazoline-6-carbonitrile] | > 1000 | > 1000 |
| COc1ccc(-n2c(C3CCCN3)nc3ccc([N+](=O)[O-])cc3c2=O)cc1 (stereo not shown) [Example 8, 3-(4-methoxyphenyl)-6-nitro-2-(pyrrolidin-2-yl) quinazolin-4 (3H)-one] | 1 to 50 | 1 to 50 |
| O=c1c2cc([N+](=O)[O-])ccc2nc([C@H]2CCCN2)n1-c1ccc(Cl)cc1 [Example 23, (R)-3-(4-chlorophenyl)-6-nitro-2-(pyrrolidin-2-yl) quinazolin-4 (3H)-one] | 1 to 50 | 1 to 50 |
| COc1ccc(-n2c([C@H]3CCCN3)nc3c(-c4ccc(C)nc4)cc(C#N)cc3c2=O)cc1F [Example 102, (R)-3-(3-fluoro-4-methoxyphenyl)-8-(6-methylpyridin-3-yl)-4-oxo-2-(pyrrolidin-2-yl)-3,4-dihydroquinazoline-6-carbonitrile] | 1 to 50 | 1 to 50 |
| COc1ccc(-n2c(C3CCCN3)nc3c(-c4ccc(OC(F)(F)F)cc4)cc(C#N)cc3c2=O)cc1F (stereo not shown) [Example 151, 3-(3-Fluoro-4-methoxyphenyl)-4-oxo-2-(pyrrolidin-2-yl)-8-(4-(trifluoromethoxy)phenyl)-3,4-dihydroquinazoline-6-carbonitrile] | 1 to 50 | 1 to 50 |
| COc1ccc(-n2c([C@@H]3C[C@@H](F)CN3)nc3c(C)cc([N+](=O)[O-])cc3c2=O)cc1F [Example 64, 2-((2S,4R)-4-fluoropyrrolidin-2-yl)-3-(3-fluoro-4-methoxyphenyl)-8-methyl-6-nitroquin-azolin-4 (3H)-one] | > 1000 | > 1000 |
| COc1c(F)cc(-n2c(C3C[C@H](F)CN3)nc3c(-c4ccnc(C)c4)cc(C#N)cc3c2=O)cc1F (stereo partly drawn) [Example 156, 3-(3,5-Difluoro-4-methoxyphenyl)-2-((4S)-4-fluoropyrrolidin-2-yl)-8-(2-methylpyridin-4-yl)-4-oxo-3,4-dihydroquinazoline-6-carbonitrile] | 151 to 500 | 1 to 50 |
| COc1ccc(-n2c([C@H]3CCCN3)nc3ccc([N+](=O)[O-])cc3c2=O)cc1 [Example 9, (R)-3-(4-methoxyphenyl)-6-nitro-2-(pyrrolidin-2-yl) quinazolin-4 (3H)-one] | 1 to 50 | 1 to 50 |
| COc1ccc(-n2c([C@H]3CCCN3)nc3ccc(F)c(F)c3c2=O)cc1 [Example 28, (R)-5,6-difluoro-3-(4-methoxyphenyl)-2-(pyrrolidin-2-yl) quinazolin-4 (3H)-one] | > 1000 | 151 to 500 |
| COc1ccc(-n2c([C@H]3CCCN3C)nc3c(-c4cn(C)cn4)cc(C#N)cc3c2=O)cc1F [Example 98, (R)-3-(3-fluoro-4-methoxyphenyl)-8-(1-methyl-1H-imidazol-4-yl)-2-(1-methylpyrrolidin-2-yl)-4-oxo-3,4-dihydroquinazoline-6-carbonitrile] | 1 to 50 | 1 to 50 |
| COc1ccc(-n2c([C@H]3CCCN3)nc3cc([N+](=O)[O-])ccc3c2=O)cc1 [Example 48, (R)-3-(4-methoxyphenyl)-7-nitro-2-(pyrrolidin-2-yl)quinazolin-4 (3H)-one] | > 1000 | > 1000 |
| COc1ccc(-n2c([C@H]3CCCN3)nc3c(Br)cc(C#N)cc3c2=O)cc1F [Example 96, (R)-8-bromo-3-(3-fluoro-4-methoxyphenyl)-4-oxo-2-(pyrrolidin-2-yl)-3,4-dihydroquinazoline-6-carbonitrile] | 1 to 50 | 1 to 50 |
| Cc1ccccc1-n1c([C@H]2CCCN2)nc2ccc([N+](=O)[O-])cc2c1=O [Example 35, (R)-6-nitro-2-(pyrrolidin-2-yl)-3-(o-tolyl)quinazolin-4 (3H)-one] | > 1000 | > 1000 |
| COc1ccc(-n2c([C@H]3CCCN3)nc3cccc([N+](=O)[O-])c3c2=O)cc1 [Example 49, (R)-3-(4-methoxyphenyl)-5-nitro-2-(pyrrolidin-2-yl)quinazolin-4 (3H)-one] | > 1000 | > 1000 |
| COc1ccc(-n2c([C@H]3CCCN3)nc3c(-c4cncc(C#N)c4)cc([N+](=O)[O-])cc3c2=O)cc1F [Example 94, (R)-3-(3-fluoro-4-methoxyphenyl)-8-(5-cyanopyridin-3-yl)-6-nitro-2-(pyrrolidin-2-yl) quinazolin-4 (3H)-one] | 51 to 150 | 1 to 50 |
| COc1ccc(-n2c([C@H]3CCCN3)nc3c(-c4cccnc4)cc([N+](=O)[O-])cc3c2=O)cc1F [Example 81, (R)-3-(3-fluoro-4-methoxyphenyl)-6-nitro-8-(pyridin-3-yl)-2-(pyrrolidin-2-yl) quinazolin-4 (3H)-one] | 1 to 50 | 1 to 50 |
| O=c1c2cc([N+](=O)[O-])ccc2nc(C2CCN2)n1-c1ccccc1 (stereo not shown) [Example 27, 2-(azetidin-2-yl)-6-nitro-3-phenylquinazolin-4 (3H)-one] | > 1000 | 501 to 1000 |
| COc1ccc(-n2c(C3C[C@@H]4CCC[C@@H]4N3)nc3c(-c4ccc(C)nc4)cc(C#N)cc3c2=O)cc1F (stereo partly drawn) [Example 140, 3-(3-fluoro-4-methoxyphenyl)-8-(6-methylpyridin-3-yl)-2-((3aS,6aS)-octahydrocyclopenta[b]pyrrol-2-yl)-4-oxo-3,4-dihydroquinazoline-6-carbonitrile] | 1 to 50 | 1 to 50 |
| COc1ncc(-n2c(C34CC(CN3)C4)nc3c(-c4ccc(C)nc4)cc(C#N)cc3c2=O)cn1 [Example 165, 2-(2-azabicyclo[2.1.1]hexan-1-yl)-3-(2-methoxypyrimidin-5-yl)-8-(6-methylpyridin-3-yl)-4-oxo-3,4-dihydroquinazoline-6-carbonitrile] | – | > 1000 |
| COc1ccc(-n2c([C@@H]3C[C@@](O)(C(F)(F)F)CN3)nc3c(-c4ccc(C)nc4)cc(C#N)cc3c2=O)cc1F [Example 192, 3-(3-fluoro-4-methoxyphenyl)-2-((2S,4S)-4-hydroxy-4-(trifluoromethyl)pyrrolidin-2-yl)-8-(6-methylpyridin-3-yl)-4-oxo-3,4-dihydroquinazoline-6-carbonitrile] | – | 1 to 50 |
| COc1ccc(-n2c([C@@H]3CC(F)(F)CN3)nc3c(-c4ccc(C)nc4)cc(C#N)cc3c2=O)cc1F [Example 183, (S)-2-(4,4-difluoropyrrolidin-2-yl)-3-(3-fluoro-4-methoxyphenyl)-8-(6-methylpyridin-3-yl)-4-oxo-3,4-dihydroquinazoline-6-carbonitrile] | – | 151 to 500 |
| COc1ccc(-n2c(C3CCCN3)nc3c(Oc4ccc(C)nc4)cc(C#N)cc3c2=O)cc1F (stereo not shown) [Example 191, 3-(3-fluoro-4-methoxyphenyl)-8-((6-methylpyridin-3-yl)oxy)-4-oxo-2-(pyrrolidin-2-yl)-3,4-dihydroquinazoline-6-carbonitrile] | – | 1 to 50 |
| COc1ccc(-n2c([C@@H]3C[C@H](C(F)(F)F)CN3)nc3c(-c4ccc(C)nc4)cc(C#N)cc3c2=O)cc1F (racemic) [Example 190, cis-(±)-3-(3-fluoro-4-methoxyphenyl)-8-(6-methylpyridin-3-yl)-4-oxo-2-((2S,4S)-4-(trifluoromethyl)pyrrolidin-2-yl)-3,4-dihydroquinazoline-6-carbonitrile] | – | 1 to 50 |
| COc1c(F)cc(-n2c(C3CCCN3)nc3c(-c4ccc(C(C)(C)O)nc4)cc(C#N)cc3c2=O)cc1F (stereo not shown) [Example 182, 3-(3,5-difluoro-4-methoxyphenyl)-8-(6-(2-hydroxypropan-2-yl)pyridin-3-yl)-4-oxo-2-(pyrrolidin-2-yl)-3,4-dihydroquinazoline-6-carbonitrile] | – | 1 to 50 |
| COc1ccc(-n2c(C34CC(CN3)C4)nc3c(-c4ccc(C)nc4)cc(C#N)cc3c2=O)cc1F [Example 178, 2-(2-azabicyclo[2.1.1]hexan-1-yl)-3-(3-fluoro-4-methoxyphenyl)-8-(6-methylpyridin-3-yl)-4-oxo-3,4-dihydroquinazoline-6-carbonitrile] | – | 1 to 50 |
| COc1ccc(-n2c(C3CCCN3)nc3c(-c4ccc(CO)nc4)cc(C#N)cc3c2=O)cc1F (stereo not shown) [Example 181, 3-(3-fluoro-4-methoxyphenyl)-8-(6-(hydroxymethyl)pyridin-3-yl)-4-oxo-2-(pyrrolidin-2-yl)-3,4-dihydroquinazoline-6-carbonitrile] | – | 1 to 50 |
| COc1ccc(-n2c([C@H]3CCCN3)nc3c(N4CCC(N5CCOCC5)CC4)cc(C#N)cc3c2=O)cc1F [Example 179, (R)-3-(3-fluoro-4-methoxyphenyl)-8-(4-morpholinopiperidin-1-yl)-4-oxo-2-(pyrrolidin-2-yl)-3,4-dihydroquinazoline-6-carbonitrile] | – | 1 to 50 |
| COc1ccc(-n2c(C3C[C@@H](OC)CN3)nc3c(-c4ccc(C)nc4)cc(C#N)cc3c2=O)cc1F (stereo partly drawn) [Example 120, 3-(3-fluoro-4-methoxyphenyl)-2-((4R)-4-methoxypyrrolidin-2-yl)-8-(6-methylpyridin-3-yl)-4-oxo-3,4-dihydroquinazoline-6-carbonitrile] | – | 151 to 500 |
| COc1c(F)cc(-n2c(C3CCCN3)nc3c(-c4ccc(C(C)=O)nc4)cc(C#N)cc3c2=O)cc1F (stereo not shown) [Example 177, 8-(6-acetylpyridin-3-yl)-3-(3,5-difluoro-4-methoxyphenyl)-4-oxo-2-(pyrrolidin-2-yl)-3,4-dihydroquinazoline-6-carbonitrile] | – | 1 to 50 |
